The record followed here is the METLIN SMRT retention time set (Domingo-Almenara et al. 2019).

The data set in a line: gradient 5% acetonitrile 3 min, to 50% in 2 min, to 85% in 15 min, held 3 min, 100 µL/min. Conditions: column: Zorbax Extend-C18 2.1 x 50 mm; eluents: water / acetonitrile, 0.1% formic acid. The essentials: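 Mixtures of ~100 pure standards were chromatographed on a Zorbax Extend-C18 column (2.1 × 50 mm, 1.8 μm) at 100 μL/min using water and acetonitrile, each with 0.1% formic acid. Detection used a quadrupole time-of-flight mass spectrometer in positive and negative ionization mode, and data collection spanned 3 months. Retention time was obtained from adduct peaks picked computationally and each checked manually.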
Regarding `COc1cccc(NC(=O)N2CCOc3ccc(C)cc32)c1`, the RP-LC retention time amounted to 968 s.
The figure for `CCCS(=O)(=O)c1nc2ccc(NS(=O)(=O)c3cc(C)cc(C)c3)cc2s1` is 998 s; for `Oc1ccc(-c2nc3ccc(Cl)cn3c2Nc2ccc(Cl)cc2)cc1` it is 733 s.
With `O=C(Nc1ccccc1C(F)(F)F)C1CCCN(c2ccc(=O)n(-c3cccc(Cl)c3)n2)C1` (stereo not given) the figure was 971 s; with `CC(C)CC(=O)Nc1ccc(OCc2cc(C(=O)NC3CC3)no2)cc1`, 747 s.
Regarding `COc1ccc(OC)c(Nc2c(C(=O)N3CCC(C)CC3)cnc3nc(C)ccc23)c1`, the RP-LC retention time is 662 s.
The figure for `COCCC1CCOC2(CCN(C(=O)C3CCN(C(C)=O)CC3)CC2)C1` (stereo not given) is 646 s; for `Cc1ccc(C)c(NC(=O)N2C[C@@H](F)C[C@H]2C(=O)N2CCc3ccccc3C2)c1` it is 836 s; for `CC(=O)N(Cc1nn(C)c2c1CN(CC1=Cc3ccccc3OC1)CC2)c1ccccc1` it is 654 s.
`O=C(CCc1csc(NC(=O)c2ccc(F)cc2)n1)NCCn1ncccc1=O` showed an RP-LC retention time of 624 s.
With `CN1C(=O)c2cc(S(=O)(=O)Nc3ccc(F)cc3F)ccc2Oc2cccnc21` the figure was 887 s; with `NC(=O)c1cc(-c2ccccc2)sc1NC(=O)c1ccc([N+](=O)[O-])o1`, 883 s.
The figure for `CCOC(=O)N1CCC(NC(=O)CCC2CCN(c3cc(NC4CC4)ncn3)CC2)CC1` is 619 s; for `Cc1ccn2cc(-c3ccc(NS(=O)(=O)c4ccc(C)c(C)c4)cc3)nc2n1` it is 682 s; for `CCCCn1c(=O)c2ccccc2n(Cc2nc(-c3cccc(C)c3)no2)c1=O` it is 1230 s.
With `CC(C)CNC(=O)c1nn(C)c2c1COc1ccccc1-2` the figure was 690 s; with `CCCCNC(=O)c1ccc2c(c1)NC(=O)C(C(C)C)N2` (stereo not given), 684 s.
The molecule `COc1cccc(-n2ccnc(NC(=O)Nc3cccc(F)c3)c2=O)c1` showed an RP-LC retention time of 934 s.
`CCOC(=O)c1cnc2c(-c3ccccc3OC)c(C)nn2c1N` came in with an RP-LC retention time of 879 s.
The figure for `O=C1Nc2ccccc2C1(c1ccc(O)cc1)c1ccc(O)cc1` is 755 s.
With `Cc1cc2c(cc1CNC(=O)Cn1c(C)c(C#N)c3ccccc31)OCCCO2`, the RP-LC retention time was determined as 894 s.
In turn, `CCOc1ccc(CN2CCC(NC(=O)Cc3cccnc3)C2)cn1` (stereo not given) had an RP-LC retention time of 731 s.
Consider `COc1ccc(NC(=O)N2CCC(c3nc4cccnc4n3C)C2)cc1` (stereo not given), for which the RP-LC retention time was found to be 617 s.
`CCn1nc(C)cc1C(=O)N(Cc1ccccn1)c1nc2c(OC)ccc(OC)c2s1` registered an RP-LC retention time of 883 s.
The figure for `CCOC(=O)C1CCN(C(=O)Cn2c(=O)oc3ccc(C(=O)N4CCCC4)cc32)CC1` is 699 s; for `O=C(Nc1ccc(N2CCCS2(=O)=O)cc1)NC(c1ccccc1)c1ccccc1` it is 814 s; for `CCn1cc(CCN2CCN(S(=O)(=O)c3ccc(F)cc3)CC2)c2cccnc21` it is 638 s.
For `CCOc1ccc(CNC(=O)c2snc(C(=O)NCc3ccc(F)cc3)c2N)cc1`, the RP-LC retention time came out at 1040 s.
The figure for `CCOC(=O)c1ccc(NC(=O)Cn2ccc3ccc(-c4nnc(C)o4)cc32)cc1` is 944 s; for `CSc1ccc2c(c1)C(N1CCN(C)CC1)Cc1ccccc1S2` (stereo not given) it is 869 s.
Regarding `O=C(NCC(=O)N1CCCc2ccccc21)C1CCN(S(=O)(=O)c2ccc(Cl)cc2)CC1`, the RP-LC retention time is 914 s.
In the case of `O=C(Nc1nnc(C2CCCCC2)o1)c1c[nH]c2ccccc12`, the RP-LC retention time stood at 714 s.
With `CCCn1cc(S(=O)(=O)Nc2ccccc2Cl)c2cccnc21` the figure was 914 s.
Regarding `CCn1cc(S(=O)(=O)Nc2ccc(F)cc2F)c2cccnc21`, the RP-LC retention time stood at 814 s.
With `CCOc1cc(=O)n2c(c1C(=O)Nc1ccc(Cl)cc1)CCCC2` the figure was 769 s; with `CCCn1ccc2sc(C)c(C(=O)NCCC3=CCCCC3)c2c1=O`, 1000 s.
Regarding `Nc1nc(Cl)nc2c1ncn2[C@H]1C[C@H](O)[C@@H](CO)O1`, the RP-LC retention time stood at 593 s.
The figure for `N#CC1=CN(c2ccc3c(c2)CCC3)c2ccccc2S1(=O)=O` is 1010 s; for `CCc1ccc(C(=O)N2CCN(C(=O)c3nnn4c3COC(c3ccc(C)cc3)C4)CC2)cc1` (stereo not given) it is 1000 s.
The figure for `O=C(CN1CCC2(CC1)NC(=O)c1ccccc1N2)Nc1ccc(Cl)cc1` is 637 s; for `CC(C(=O)OC1CC2CCC(C1)N2C)c1ccc(Br)cc1` (stereo not given) it is 785 s; for `CCOc1ccc(NC(=O)NCCc2cn(C)c3ncccc23)cc1` it is 676 s.
With `CCC(=O)N1CCCC1c1nc2ccccc2n1CC(=O)OC` (stereo not given) the figure was 592 s; with `Cc1ccc(NC(=O)CSc2cc(N3CCCC(C)C3)ncn2)c(C)c1` (stereo not given), 1100 s.
In turn, `CSc1ccc(NC(=O)C2CC(=O)N(c3ccc4c(c3)CCN4C(C)=O)C2)cc1` (stereo not given) displayed an RP-LC retention time of 730 s.
Take `CN(C)c1cnc(-n2cc(NC(=O)c3ccc(C(F)(F)F)cc3)cn2)nc1`: the RP-LC retention time came to 833 s.
The figure for `COc1cc(NC(=O)c2cc3c(n(-c4ccc(F)cc4)c2=O)CCCC3=O)cc(OC)c1` is 958 s.
The figure for `COCc1ncc(C)n1CC1CN(C(=O)C2(c3ccc(OC)cc3)CC2)C1` is 625 s; for `CC(C)c1cccc(NC(=O)Cn2nc(N3CCCC3)c3ccccc3c2=O)c1` it is 1090 s.
With `O=C(c1cc2cc(Br)ccc2[nH]1)N1CCCC1` the figure was 905 s.
Regarding `CCN1c2ccc(C)cc2C(=O)NC12CCN(C(=O)c1ccc(Cl)cc1)CC2`, the RP-LC retention time stood at 858 s.
The figure for `Cc1nn(CC(=O)NCc2ccco2)c(=O)c2nc(-c3ccccc3)sc12` is 782 s; for `O=C(c1ccccc1OCc1nc(-c2ccccc2)no1)N1CCCCC1` it is 950 s.
Turning to `COc1ccc(NC(=O)Cn2nc3cc(C)nc(Nc4ccc(F)c(C)c4)n3c2=O)cc1`, the RP-LC retention time amounted to 1070 s.
In the case of `CN1C(=O)c2cccnc2Sc2cc(NC(=O)c3c(F)cccc3F)ccc21`, the RP-LC retention time was determined as 754 s.
For `Cc1nc(CCNC(=O)Cc2cccs2)no1`, the RP-LC retention time turned out to be 646 s.
On to `O=S(=O)(NCc1ccc(F)cc1)c1ccccc1-c1nc(-c2cccc(F)c2)no1`, for which the RP-LC retention time turned out to be 1150 s.
Regarding `Cc1ccc(CNC(=O)c2ccc3c(c2)N(C(=O)c2ccc(F)cc2)CC3)o1`, the RP-LC retention time amounted to 883 s.
The figure for `Cc1noc(C)c1CC(=O)NCC12CCC=C1N(C)C(=O)CC2` (stereo not given) is 638 s.
Turning to `O=C(CCNc1cnc2cnccn12)NCc1cccc(C(F)(F)F)c1`, the RP-LC retention time was found to be 608 s.
